These results are taken from paper PMC7394103 (Frontiers in Pharmacology, 2020).

Data set [1] concerns MMP3 gene expression in FLS. The experiment in a line: MMP3 gene expression in IL-1β-stimulated FLS (qPCR). The format is cell-based, human. The following applies: 4, 10, 25 µM, 1 h before IL-1β (2 ng/ml) for 6 h, vs vehicle. As for the experimental part:
For MMP mRNA analysis, FLS were plated in six-well plates, cultured until 80% confluence, and subsequently serum starved (1% FBS/DMEM) for 24 h. […] The mRNA was isolated and reverse transcribed to obtain cDNA. Quantitative real-time polymerase chain reaction was performed using primer probe sets for MMP3 and glyceraldehyde 3-phosphate dehydrogenase (GAPDH) (Life Technologies). Threshold cycle values were obtained and normalized to GAPDH expression.
Background: In qPCR the cycle at which signal appears reflects the starting amount.

In another data set the test system is LN cells from CIA mice. The experiment in a line: CII-induced cytokine production by LN cells from treated CIA mice. The format is in vivo. To be noted: 30 mg/kg; for IL-10 production by LN cells / proinflammatory cytokines (IL-1β, IL-5, IL-6, IL-17A, TNF, GM-CSF, RANKL) by LN cells: cells cultured 72 h with CII, vs saline. As for the experimental part:
At the end of the study (day 44), we isolated the axillary, inguinal, and popliteal LN and purified mononuclear cells from the LN. These cells were cultured in 6-well plates (5 × 10^6 cells/ml) without or with 50 μg/ml CII for 3 days in RPMI-1640 medium supplemented with 10% of fetal bovine serum (FBS) (Invitrogen, Carlsbad, CA, USA), 2 mM l-glutamine, 100 U/ml penicillin, 100 μg/ml streptomycin, 1 mM sodium pyruvate, and 0.1 mM nonessential amino acids ([Kochetkova et al., 2008]). The levels of cytokines, including tumor necrosis factor (TNF), granulocyte-macrophage colony-stimulating factor (GM-CSF), IL-1β, IL-5, IL-6, IL-10, IL-17A, and receptor activator of nuclear factor-κB ligand (RANKL) were measured in LN culture supernatants using ELISA kits (BD Biosciences, San Jose, CA, USA) for mouse cytokines.

A further data set relates to JNK2. Also on record: method as in Schepetkin et al., 2019. The following applies: kinase profiling; ref Schepetkin et al., 2019; cited from earlier work.
Data set [2] in a line: Cytotoxicity assay (CellTiter-Glo), HUVEC. The format is cell-based. To be noted: human, HUVECs; concentrations up to 50 µM; read-out: Cytotoxic effect HUVEC IC50. As for the experimental part: (§1) Cytotoxicity was analyzed using a CellTiter-Glo Luminescent Cell Viability Assay Kit (Promega), according to the manufacturer’s protocol. Briefly, cells were cultured at a density of 10^4 to 10^5 cells/well with different concentrations of test compounds (final concentration of DMSO was 1%) for the indicated periods of time (2, 12, or 24 h) at 37°C and 5% CO2. Following treatment, substrate was added to the cells, and the samples were analyzed with a Fluoroscan Ascent FL microplate reader.
On the technique in general: In ATP-based viability assays light output follows the ATP content of the culture.

Data set [3] relates to c-Jun phosphorylation in FLS. In words: c-Jun phosphorylation in IL-1β-stimulated FLS (Western blot). The format is cell-based, human. To be noted: 1 h pretreatment, 2 ng/ml IL-1β 15 min. As for the experimental part: Cultured FLS (passage 4) were plated at 2 × 10^5 cells in six-well plates overnight in DMEM containing 10% FBS and synchronized for 24 h in DMEM/0.1% FBS. […] The cells were then washed once with ice-cold PBS and lysed with modified radioimmunoprecipitation assay buffer [50 mM HEPES, pH 7.4, 150 mM NaCl, 1% Triton X-100, 10% glycerol, 2.5 mM MgCl2, 1.0 mM EDTA, 20 mM β-glycerophosphate, 10 mM NaF, 1 mM Na3VO4, and Protease inhibitor cocktail (Roche, Indianapolis, IN)]. Protein concentration of the lysates was measured using a MicroBCA Assay kit (Pierce, Rockford, IL), and 40 μg lysate was subjected to 10% SDS-PAGE and Western blot analysis. Anti–phospho-c-Jun (Ser63) was purchased from Cell Signaling Technology (Danvers, MA), and anti-mouse GAPDH was from Santa Cruz Biotechnology (Santa Cruz, CA).
On the technique in general: A western blot detects proteins with antibodies after separation by electrophoresis.

In data set [4] the test system is MMP-1 secretion by SW982 cells. In words: IL-1β-induced MMP-1 secretion by SW982 cells (ELISA). The following applies: Homo sapiens, 30 min compound, then 5 ng/ml IL-1β, 24 h, read-out: SW-982 MMP-1 IC50. The format is cell-based. As for the experimental part:
FLS, HUVEC, SW982, and THP-1 cells were plated in 96 well plates (10^4 to 10^5 cells/well) for 48 h before treatment. At 2 days post-confluency, the cells were serum-starved and washed twice (with the exception of THP-1 cell, which were not washed) with FBS-free medium prior to the addition of test compounds. The cells were incubated in the presence or absence of test compounds or DMSO (vehicle control) for 30 min at 37°C in a 5% CO2 atmosphere, IL-1β (5 ng/ml) was added, and the cells were incubated for an additional 24 h. Culture supernatants were collected and stored at –80°C. The levels of MMP-1 and MMP-3 were determined in culture supernatants using commercially available ELISA kits according to the manufacturer’s instructions (R&D System, Minneapolis, MN, USA). IL-6 levels were also determined in the supernatants using a human IL-6 ELISA kit (BD Biosciences, San Jose, CA, USA).

Data set [5] is described as follows: Cytotoxicity assay (CellTiter-Glo), SW982. The format is cell-based. To be noted: human, SW982 cells; concentrations up to 50 µM; read-out: Cytotoxic effect SW982 IC50. As for the experimental part: as §1
A further data set concerns IL-6 secretion by FLS. In words: IL-1β-induced IL-6 secretion by FLS (ELISA). The following applies: Homo sapiens; 30 min compound, then 5 ng/ml IL-1β, 24 h. The format is cell-based. From the text:
(§2) This study was approved by the Institutional Review Board of University of California, San Diego School of Medicine (La Jolla, CA, USA). Informed consent was obtained from all participants. Anonymous synovial tissue samples were obtained from six patients with RA at the time of total joint replacement (5 females, 1 male; age range, 44–72 years), as previously described ([Alvaro-Gracia et al., 1990]). The diagnosis of RA conformed to American College of Rheumatology 1987 revised criteria ([Arnett et al., 1988]). The synovium was minced and incubated with collagenase type VIII (0.5 mg/ml) (Sigma-Aldrich) in serum-free RPMI-1640 (Life Technologies, Grand Island, NY, USA) for 2 h at 37°C, filtered, extensively washed, and cultured in DMEM (Life Technologies) supplemented with 10% FBS (Gemini Bio Products, Calabasas, CA, USA), penicillin, streptomycin, gentamicin, and glutamine in a humidified 5% CO2 atmosphere. […]
(§3) FLS, HUVEC, SW982, and THP-1 cells were plated in 96 well plates (10^4 to 10^5 cells/well) for 48 h before treatment. […] The levels of MMP-1 and MMP-3 were determined in culture supernatants using commercially available ELISA kits according to the manufacturer’s instructions (R&D System, Minneapolis, MN, USA). IL-6 levels were also determined in the supernatants using a human IL-6 ELISA kit (BD Biosciences, San Jose, CA, USA).

In a further data set the test system is MMP-1 secretion by FLS. In words: IL-1β-induced MMP-1 secretion by FLS (ELISA). The format is cell-based. The following applies: Homo sapiens; 30 min compound, then 5 ng/ml IL-1β, 24 h.
Description: as §2, §3

Broadly, the IC50 is the concentration needed to halve the response being measured. `O=C1c2ccccc2-n2c1nc1ccccc1c2=O` [TRYP, indolo[2,1-b]quinazolin-6,12-dione]: the “MMP3 mRNA levels” value in data set [1] is “dose-dependent reduction”. For the same compound, the “IL-10 production by LN cells” value with LN cells from CIA mice is given as “higher”. For the same compound, the “proinflammatory cytokines (IL-1β, IL-5, IL-6, IL-17A, TNF, GM-CSF, RANKL) by LN cells” value in the data set on LN cells from CIA mice is “significantly reduced”. Further, the “binding affinity for JNK2” value in the data set on JNK2 is “no binding affinity”. For the same compound, the IC50 was found to be 13.8 ± 1.5 µM in data set [2]; 7.8 ± 2 µM in [4]; 19.1 ± 4.9 µM in [5]; 14.8 ± 1.8 µM in the data set with IL-6 secretion by FLS; 1.2 ± 0.4 µM with MMP-1 secretion by FLS. In addition, in data set [3], the c-Jun phosphorylation result is reported as “had no effect”.
Take `O=c1c2ccccc2nc2n1-c1ccccc1/C2=N/O` [TRYP-Ox, tryptanthrin-6-oxime]: in [1], the “MMP3 mRNA levels” value was “dose-dependent reduction”. Moreover, the “IL-10 production by LN cells” value in the data set on LN cells from CIA mice was “higher”. For the same compound, the “proinflammatory cytokines (IL-1β, IL-5, IL-6, IL-17A, TNF, GM-CSF, RANKL) by LN cells” value in the data set on LN cells from CIA mice is reported as “significantly reduced”. The “IL-17A, GM-CSF and RANKL production by LN cells” value in the data set with LN cells from CIA mice (compared to mice treated with TRYP) is listed as “significantly lower”. In addition, the “binding affinity for JNK2” value in the data set on JNK2 was “high binding affinity”. In addition, the IC50 was above 50 µM in data set [2]; 2.6 ± 0.8 µM in data set [4]; above 50 µM in [5]; 7.4 ± 1.2 µM with IL-6 secretion by FLS; 0.7 ± 0.1 µM with MMP-1 secretion by FLS. Besides, the c-Jun phosphorylation result in [3] is “inhibited c-Jun phosphorylation”.
